Molecular target: PRMT5/MEP50 (Homo sapiens (Human), UniProt O14744)
Experiment: PRMT5 Biochemical Assay (PRMT5/MEP50 enzyme assay on peptide substrate, 3H-SAM Flashplate)
Settings: PRMT5/MEP50 biochemical assay; read-out: Biochemical IC50

Chain of PRMT5/MEP50 (O14744 other isoform, or with tags, fused parts or gaps): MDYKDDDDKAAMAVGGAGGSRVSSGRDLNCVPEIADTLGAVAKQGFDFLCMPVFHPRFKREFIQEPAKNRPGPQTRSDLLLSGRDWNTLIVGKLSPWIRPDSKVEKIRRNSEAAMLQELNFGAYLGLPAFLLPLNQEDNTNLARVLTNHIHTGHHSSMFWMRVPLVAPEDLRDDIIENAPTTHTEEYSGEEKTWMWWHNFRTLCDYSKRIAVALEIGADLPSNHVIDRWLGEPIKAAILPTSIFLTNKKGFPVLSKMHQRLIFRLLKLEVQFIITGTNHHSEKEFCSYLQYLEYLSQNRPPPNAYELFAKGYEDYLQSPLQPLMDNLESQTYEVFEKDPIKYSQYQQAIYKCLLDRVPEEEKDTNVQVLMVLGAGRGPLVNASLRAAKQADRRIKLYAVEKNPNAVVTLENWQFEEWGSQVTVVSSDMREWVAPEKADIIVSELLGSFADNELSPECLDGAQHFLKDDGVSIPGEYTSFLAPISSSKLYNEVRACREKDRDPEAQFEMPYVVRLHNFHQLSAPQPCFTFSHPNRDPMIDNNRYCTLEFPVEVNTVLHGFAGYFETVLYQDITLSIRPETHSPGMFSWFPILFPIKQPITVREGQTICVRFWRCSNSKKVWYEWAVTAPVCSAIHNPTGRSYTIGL
Chain of PRMT5/MEP50 (Q9BQA1 other isoform, or with tags, fused parts or gaps partner): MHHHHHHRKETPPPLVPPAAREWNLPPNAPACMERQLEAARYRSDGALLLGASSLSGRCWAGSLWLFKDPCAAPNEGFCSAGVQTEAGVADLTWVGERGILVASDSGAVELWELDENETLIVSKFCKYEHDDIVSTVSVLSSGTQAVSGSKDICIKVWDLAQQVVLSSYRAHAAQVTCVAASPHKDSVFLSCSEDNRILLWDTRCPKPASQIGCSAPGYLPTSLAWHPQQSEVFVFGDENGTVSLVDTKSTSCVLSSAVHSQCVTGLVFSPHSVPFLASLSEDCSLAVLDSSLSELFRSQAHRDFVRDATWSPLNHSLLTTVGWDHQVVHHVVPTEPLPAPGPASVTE

Row | Structure (SMILES) | IC50 [nM]
1 | COCCNc1cccc(C(=O)NCC(O)CN2CCc3ccccc3C2)c1 (stereo not drawn) [Compound 72] | 101 to 1000
2 | O=C1COc2cc(C(=O)NCC(O)CN3CCc4ccccc4C3)ccc2N1 (stereo not drawn) [Compound 89] | 101 to 1000
3 | O=C(NC[C@H](O)CN1CCc2ccccc2C1)c1cncc(OC2CCN(CC(F)(F)F)CC2)c1 [Compound 289] | 101 to 1000
4 | O=C(NCC(O)CN1CCc2ccccc2C1)c1ccc2c(c1)OCCN2 (stereo not drawn) [Compound 88] | 101 to 1000
5 | O=C(NCC(O)CN1CCc2ccccc2C1)c1cccc(NC2CCNC2)c1 (stereo not drawn) [Compound 93] | 101 to 1000
6 | Cn1ccc(C(=O)NCC(O)CN2CCc3ccccc3C2)n1 (stereo not drawn) [Compound 149] | 101 to 1000
7 | O=C(NCC(O)CN1CCc2ccccc2C1)c1cccc(NC2CCOCC2)c1 (stereo not drawn) [Compound 16, N-(3-(3,4-dihydroisoquinolin-2(1H)-yl)-2-hydroxypropyl)-3-((tetrahydro-2H-pyran-4-yl)amino)benzamide] | < 100
8 | CN(C)C(=O)CNCc1cccc(C(=O)NCC(O)CN2CCc3ccccc3C2)c1 (stereo not drawn) [Compound 118] | < 100
9 | O=C(NC[C@H](O)CN1CCc2ccccc2C1)c1ccc2c(c1)CCCC2 [Compound 247] | < 100
10 | Cc1ccc2cc(C(=O)NC[C@@H](O)CN3CCc4ccccc4C3)ccc2n1 [Compound 219, (R)—N-(3-(3,4-dihydroisoquinolin-2(1H)-yl)-2-hydroxypropyl)-2-methylquinoline-6-carboxamide] | < 100
11 | O=C(NCC(O)CN1CCc2ccccc2C1)c1ccc(CN2CCNCC2)cc1 (stereo not drawn) [Compound 143] | < 100
12 | CNCCNc1cc(C(=O)NC[C@H](O)CN2CCc3ccccc3C2)ccn1 [Compound 314] | < 100
13 | CN(C[C@H](O)CN1CCc2ccccc2C1)C(=O)c1cc(NC2CCOCC2)ncn1 [Compound 232] | 101 to 1000
14 | C[C@H]1COCCC1Nc1cccc(C(=O)NC[C@H](O)CN2CCc3ccccc3C2)c1 (stereo partly drawn) [Compound 213] | < 100
15 | NCCN1CCN(Cc2cccc(C(=O)NCC(O)CN3CCc4ccccc4C3)c2)CC1 (stereo not drawn) [Compound 147] | < 100
16 | O=C(NC[C@H](O)CN1CCc2ccccc2C1)c1cc(NC2CCN(CC(F)(F)F)C2)ncn1 (stereo partly drawn) [Compound 182] | < 100
17 | CN1CCC(CNc2cc(C(=O)NC[C@H](O)CN3CCc4ccccc4C3)ccn2)CC1 [Compound 292] | < 100

Row | Structure (SMILES) | IC50 [nM]
18 | COCCCOc1ccc(C(=O)NCC(O)CN2CCc3ccccc3C2)cc1 (stereo not drawn) [Compound 146] | < 100
19 | CN(CCN(C)S(C)(=O)=O)c1cc(C(=O)NC[C@H](O)CN2CCc3ccccc3C2)ccn1 [Compound 263] | < 100
20 | CS(=O)(=O)N1CC(Nc2cc(C(=O)NC[C@H](O)CN3CCc4ccccc4C3)ccn2)C1 [Compound 278] | < 100
21 | Cc1ccc(NC2CCOCC2)cc1C(=O)NCC(O)CN1CCc2ccccc2C1 (stereo not drawn) [Compound 95] | 101 to 1000
22 | O=C(NCC(O)CN1CCc2ccccc2C1)c1ccn[nH]1 (stereo not drawn) [Compound 148] | 101 to 1000
23 | COc1ccc2cc(C(=O)NCC(O)CN3CCc4ccccc4C3)ccc2n1 (stereo not drawn) [Compound 155] | 101 to 1000
24 | CS(=O)(=O)N1CCC(Nc2cccc(C(=O)NC[C@H](O)CN3CCc4ccccc4C3)c2)CC1 [Compound 216] | < 100
25 | CN(CC(O)CN1CCc2ccccc2C1)C(=O)c1cccc(NC2CCOCC2)c1 (stereo not drawn) [Compound 71] | 101 to 1000
26 | O=C(NCC(O)CN1CCc2ccccc2C1)c1cccc(C2CCNC2)c1 (stereo not drawn) [Compound 37] | < 100
27 | O=C(NCC(O)CN1CCc2ccccc2C1)c1cccc(OCCN2CCOCC2)c1 (stereo not drawn) [Compound 133] | < 100
28 | O=C(NC[C@H](O)CN1CCc2ccccc2C1)c1ccc2c(c1O)NCCC2 [Compound 328] | 1000 to 10000
29 | O=C(NC[C@H](O)CN1CCc2ccccc2C1)c1ccc(OC2CCN(CCO)CC2)cc1 [Compound 321] | < 100
30 | O=C(NC[C@H](O)CN1CCc2ccccc2C1)c1ccccc1 [Compound 3, (S)—N-(3-(3,4-dihydroisoquinolin-2(1H)-yl)-2-hydroxypropyl)benzamide] | < 100
31 | CS(=O)(=O)N1CCC(Oc2cc(C(=O)NC[C@H](O)CN3CCc4ccccc4C3)ncn2)CC1 [Compound 286] | < 100
32 | Cc1cc2ncc(C(=O)NC[C@H](O)CN3CCc4ccccc4C3)c(C)n2n1 [Compound 275] | 101 to 1000
33 | CC(=O)N1CCC(Oc2ccc(C(=O)NCC(O)CN3CCc4ccccc4C3)cc2)CC1 (stereo not drawn) [Compound 107] | < 100

Other lines, results leading:

Row | IC50 [nM] | Structure (SMILES)
34 | < 100 | O=C(NC[C@H](O)CN1CCc2ccccc2C1)c1cncc(NC2CCN(CC(F)(F)F)C2)c1 (stereo partly drawn) [Compound 303]
35 | < 100 | CCN1CCN(Cc2cccc(C(=O)NCC(O)CN3CCc4ccccc4C3)c2)CC1 (stereo not drawn) [Compound 90]
36 | < 100 | COCCN1CCN(Cc2cccc(C(=O)NCC(O)CN3CCc4ccccc4C3)c2)CC1 (stereo not drawn) [Compound 114]
37 | < 100 | Cn1nccc1-c1cccc(C(=O)NCC(O)CN2CCc3ccccc3C2)c1 (stereo not drawn) [Compound 2, N-(3-(3,4-dihydroisoquinolin-2(1H)-yl)-2-hydroxypropyl)-3-(1-methyl-1H-pyrazol-5-yl)benzamide]
38 | < 100 | CN(C)CCNc1cc(C(=O)NC[C@H](O)CN2CCc3ccccc3C2)ccn1 [Compound 214]
39 | < 100 | O=C(NC[C@H](O)CN1CCc2ccccc2C1)c1cc(NC2CCNCC2)ncn1 [Compound 180]
40 | < 100 | COc1cc(C(=O)NC[C@H](O)CN2CCc3ccccc3C2)cc(NC2CCC2)n1 [Compound 332]
41 | < 100 | O=C(NC[C@H](O)CN1CCc2ccccc2C1)c1cc2ccccc2[nH]1 [Compound 269]
42 | < 100 | CC(=O)N(C)CCN1CCN(Cc2cccc(C(=O)NCC(O)CN3CCc4ccccc4C3)c2)CC1 (stereo not drawn) [Compound 252]
43 | < 100 | O=C(NCC(O)CN1CCc2ccccc2C1)c1cccc(-c2cccnc2)c1 (stereo not drawn) [Compound 8, N-(3-(3,4-dihydroisoquinolin-2(1H)-yl)-2-hydroxypropyl)-3-(pyridin-3-yl)benzamide]
44 | < 100 | O=C(NC[C@H](O)CN1CCc2ccccc2C1)c1cc2ccccc2o1 [Compound 271]
45 | < 100 | CS(=O)(=O)N1CCC(Nc2ccc(C(=O)NCC(O)CN3CCc4ccccc4C3)cc2)CC1 (stereo not drawn) [Compound 141]
46 | < 100 | CC(C)(C)C(=O)N1CCC(Oc2ccc(C(=O)NC[C@H](O)CN3CCc4ccccc4C3)cc2)CC1 [Compound 322]
47 | < 100 | CN1CCC(Oc2cncc(C(=O)NC[C@H](O)CN3CCc4ccccc4C3)c2)CC1 [Compound 288]
48 | < 100 | CC(=O)N1CC[C@@H](Nc2cccc(C(=O)NC[C@H](O)CN3CCc4ccccc4C3)c2)C1 [Compound 293]
49 | < 100 | CC(=O)N1CCC(Nc2cccc(C(=O)NC[C@H](O)CN3CCc4ccccc4C3)c2)CC1 [Compound 215]
50 | < 100 | O=C(NC[C@H](O)CN1CCc2ccccc2C1)c1cncc(NC2CCOCC2)c1 [Compound 298]
51 | < 100 | O=C(NC[C@@H](O)CN1CCc2ccccc2C1)c1cccc(-c2ccccn2)c1 [Compound 19]
52 | < 100 | Cc1c(NC2CCOCC2)cccc1C(=O)NCC(O)CN1CCc2ccccc2C1 (stereo not drawn) [Compound 40, N-(3-(3,4-dihydroisoquinolin-2(1H)-yl)-2-hydroxypropyl)-2-methyl-3-((tetrahydro-2H-pyran-4-yl)amino)benzamide]
53 | < 100 | O=C(NCC(O)CN1CCc2ccccc2C1)c1cc(F)cc(NC2CCOCC2)c1 (stereo not drawn) [Compound 78]
54 | < 100 | O=C(NCC(O)CN1CCc2ccccc2C1)c1cccc(C2CCOCC2)c1 (stereo not drawn) [Compound 99]

Row | IC50 [nM] | Structure (SMILES)
55 | < 100 | CC(c1cccc(C(=O)NCC(O)CN2CCc3ccccc3C2)c1)N1CCN(C)CC1 (stereo not drawn) [Compound 161]
56 | < 100 | O=C(NC[C@H](O)CN1CCc2ccccc2C1)c1cnc2ccccc2n1 [Compound 245]
57 | < 100 | C[C@@H]1CC(Nc2cccc(C(=O)NC[C@H](O)CN3CCc4ccccc4C3)c2)CCO1 (stereo partly drawn) [Compound 168]
58 | < 100 | COCCN1CCC(Oc2ccc(C(=O)NC[C@H](O)CN3CCc4ccccc4C3)cc2)CC1 [Compound 329]
59 | < 100 | CN(C)C(=O)CCCN1CCN(Cc2cccc(C(=O)NCC(O)CN3CCc4ccccc4C3)c2)CC1 (stereo not drawn) [Compound 194]
60 | < 100 | Cc1ccc2cc(C(=O)NCC(O)CN3CCc4ccccc4C3)ccc2n1 (stereo not drawn) [Compound 84, N-(3-(3,4-dihydroisoquinolin-2(1H)-yl)-2-hydroxypropyl)-2-methylquinoline-6-carboxamide]
61 | < 100 | O=C(NC[C@H](O)CN1CCc2ccccc2C1)c1ccnc(NCC2CNCCO2)c1 (stereo partly drawn) [Compound 238]
62 | < 100 | O=C(NC[C@H](O)CN1CCc2ccccc2C1)c1cncc(OC2CCOCC2)c1 [Compound 183]
63 | < 100 | CN(C)CCOc1cccc(C(=O)NCC(O)CN2CCc3ccccc3C2)c1 (stereo not drawn) [Compound 28, N-(3-(3,4-dihydroisoquinolin-2(1H)-yl)-2-hydroxypropyl)-3-(2-(dimethylamino)ethoxy)benzamide]
64 | < 100 | CNC(=O)CCCN1CCN(Cc2cccc(C(=O)NCC(O)CN3CCc4ccccc4C3)c2)CC1 (stereo not drawn) [Compound 175]
65 | < 100 | CN1CCN(c2cccc(C(=O)NCC(O)CN3CCc4ccccc4C3)c2)CC1 (stereo not drawn) [Compound 36]
66 | < 100 | CC(C)N1CCC(Nc2cccc(C(=O)NCC(O)CN3CCc4ccccc4C3)c2)CC1 (stereo not drawn) [Compound 103]
67 | < 100 | CS(=O)(=O)N1CCC(Nc2cc(C(=O)NC[C@H](O)CN3CCc4ccccc4C3)ccn2)CC1 [Compound 225]
68 | < 100 | O=C(NCC(O)CN1CCc2ccccc2C1)c1ccc(OC2CCNC2)cc1 (stereo not drawn) [Compound 176]
69 | < 100 | CN1CCC(Oc2ccc(C(=O)NCC(O)CN3CCc4ccccc4C3)cc2)CC1 (stereo not drawn) [Compound 105]
70 | < 100 | O=C(NCC(O)CN1CCc2ccccc2C1)c1cccc(NC2CCNCC2)c1 (stereo not drawn) [Compound 94]
71 | < 100 | CC(=O)N1CCC(Nc2ccc(C(=O)NCC(O)CN3CCc4ccccc4C3)cc2)CC1 (stereo not drawn) [Compound 127]
72 | < 100 | CN(CCOc1cccc(C(=O)NCC(O)CN2CCc3ccccc3C2)c1)CC(N)=O (stereo not drawn) [Compound 277]
73 | < 100 | CN1CCC(Nc2cc(C(=O)NC[C@H](O)CN3CCc4ccccc4C3)ccn2)CC1 [Compound 223]
74 | < 100 | CN(CC(N)=O)Cc1cccc(C(=O)NCC(O)CN2CCc3ccccc3C2)c1 (stereo not drawn) [Compound 195]
75 | < 100 | CC(C)N1CCC(Oc2ccc(C(=O)NCC(O)CN3CCc4ccccc4C3)cc2)CC1 (stereo not drawn) [Compound 106]

Reference: patent publication US9675614B2, “PRMT5 inhibitors and uses thereof” (Epizyme, Inc., priority 2012, dated 2017)
